According to patent US5166219A, “Systemic anti-inflammatory treatment” (Lidak Pharmaceuticals, priority 1991, dated 1992):
Where two headings read alike, the source gives them in different places.

Key:
[1] = test system: physical performance of athletes; settings: vegetable oil bases, oral ingestion; U.S. Pat. No. 3,031,376; cited from earlier work
inflammatory disorders = settings: Clark, U.S. Pat. No. 4,670,471; cited from earlier work
growth of plants = settings: Ries et al. and others; cited from earlier work
[2] = test system: LP-BM 5 MuLV ecotropic virus; assay: Percent virus inhibition / plaque count of LP-BM 5 MuLV ecotropic virus using XC indicator cells; format: cell-based; settings: for inhibition at 0.5 µg/mL / inhibition at 5 µg/mL / inhibition at 50 µg/mL / inhibition at 500 µg/mL: read-out: % decrease
Procedure: A composition a composition consisting essentially of aliphatic alcohols having 22 carbons in the aliphatic chain in micelle suspension, […], was introduced into cultures of LP-BM 5 MuLV ecotropic virus, […], and the percent of virus inhibition, as compared with controls continuing only PBS buffer, indicated by cell-fusion activity and cell plaque count, using XC indicator cells (Virology 42:1136, 1970), was determined.
The effect of the C-20 to C-26 alcohols of this invention on ecotropic virus was further confirmed and compared with AZT.

[3] = test system: collagen-induced arthritis; assay: Treatment of collagen-induced arthritis (CIA) in DBA/1 mice; format: in vivo
Procedure: DBA/1 mice were injected intradermally at the base of the tail on days zero and 28 with 20 μg chick type II collagen emulsified in CFA. The mammals were followed for clinical signs of arthritis, i.e., joint erythema, edema, and loss of function. The data illustrated in FIG. 1 were derived from a series of 5 independently conducted experiments which show the clinical course of collagen-induced arthritis (CIA) in DBA/1 mice immunized with chick type II collagen/CFA. Male DBA/1 mice were immunized with 20 μg chick type Ii collagen emulsified in CFA on days zero and 28. The mammals were followed for a total of 70 days for clinical signs of arthritis, joint erythema, edema, and loss of function. That data represent the means and standard deviations of incidence of arthritis and spontaneous remission from 5 separate experiments using 10-15 mice per experiment. p As noted by others, Stuart, J. M., Townes, A. S., and Knag, A. H., Ann. Rev. Immunol. […] Histologic analysis (not shown) confirmed extensive mononuclear infiltration and pannus formation as reported by others using similar techniques, Wooley, P. H., Luthra, H. S., Stuart, J. M., and David, C. S., J. Exp. Med. 154:688-700, 1981. […] We used a four point scoring system where zero is a normal limb, 1 being marginal swelling and erythema, 2 being progressively more severe swelling, erythema, and lack of flexibility, and 3 being severe erythema, edema, and often complete fusion of the bone elements and lack of flexibility. […] S., J. Exp. Med. 154:688-700, 1981.
Male DBA/1 (obtained from Jackson Laboratories, Bar Harbor, Me.) were used at 8 to 12 weeks of age. The mice were immunized intradermally at the base of the tail on day zero and again on day 28 with 20 μg chick type II collagen, prepared exactly as described by others, Trentham, D. E., Townes, A. S., and Kang, A. H., J. Exp. Med. 146:857-858, 1977, or obtained commercially (Genzyme, Boston, Ma.), emulsified in complete Freund's adjuvant (Difco, Ann Arbor, Mi.). The mammals were examined visually twice weekly for arthritic signs, swollen and erythremic limbs. Induction of CIA-associated histopathology was assessed by evaluation of paraffin sections of normal limbs, and limbs obtained from mammals with various stages of the disease essentially as described by others, Wooley, P. H., Luthra, H. S., Stuart, J. M., and David, C. S., J. Exp. Med 154:688-700, 1981.
n-Docosanol was suspended in Pluronic F68® (Trademark of BASF Corp; chemical composition, poloxamer 188, a non-ionic detergent block co-polymer of propylene oxide and ethylene oxide) as follows: Pluronic F-68 (mw 8,400; BASF Corp., Parsippany, N.J.) was diluted to 10 mg/ml in warm (37° C.) Dulbecco's high glucose modified Eagle's medium (DMEM; Whittaker Bioproducts, Walkersville, Md.), and the solution then heated to 50° C. n-Docosanol was added at 10 mg/ml to the Pluronic F-68 in DMEM and the solution further heated to 86° C. wile sonicating (Branson 450 sonifier) for 21 minutes at an initial output of 65 watts. The resulting stock suspension contained 10 mg/ml of n-docosanol particles of 0.03-0.3 microns. The corresponding control solution was prepared identically except the n-docosanol was excluded.
Adult DBA/1 mice were immunized with collagen/CFA as described in […], and on day 44 after primary immunization the mammals were given a clinical score and placed in one of three groups. […] One group was treated once daily with 5 mg of n-docosanol as indicated in FIG. 3 (0.5 ml of 10 mg/ml n-docosanol in 10 mg/ml Pluronic F-68), half of which was given intravenously and the other half given subcutaneously. Another group was treated with 5 mg Pluronic F-68 control in a similar manner. The last group was left untreated.
The effects of n-docosanol on CIA in DBA/1 Mice are depicted in FIG. 3. Adult DBA/1 male mice were immunized with collagen/CFA as described in the legend to FIG. 2. […]

CCCCCCCCCCCCCCCCCCCCCCCCCCCCCCO [1-triacontanol]
physical performance of athletes [1]: improved physical performance of athletes
anti-inflammatory effectiveness (inflammatory disorders): the aerosol carrier destroyed the effect of triacontanol
plant growth activity (growth of plants): stimulates the growth of plants

Cc1cn([C@H]2C[C@H](N=[N+]=[N-])[C@@H](CO)O2)c(=O)[nH]c1=O [AZT, reference compound]
Plaques/culture ([2]; 0.5 μg/ml, 10^2 input): 34 ± 3 Plaques/culture
inhibition at 0.5 µg/mL ([2]; 0.5 μg/ml, 10^2 input): 69%
Plaques/culture ([2]; 0.5 μg/ml, 10^3 input): 657 ± 24 Plaques/culture
inhibition at 0.5 µg/mL ([2]; 0.5 μg/ml, 10^3 input): 14%
Plaques/culture ([2]; 5 μg/ml, 10^2 input): 43 ± 3 Plaques/culture
inhibition at 5 µg/mL ([2]; 5 μg/ml, 10^2 input): 60%
Plaques/culture ([2]; 5 μg/ml, 10^3 input): 382 ± 59 Plaques/culture
inhibition at 5 µg/mL ([2]; 5 μg/ml, 10^3 input): 50%
Plaques/culture ([2]; 50 μg/ml, 10^2 input): 23 ± 5 Plaques/culture
inhibition at 50 µg/mL ([2]; 50 μg/ml, 10^2 input): 79%
Plaques/culture ([2]; 50 μg/ml, 10^3 input): 131 ± 10 Plaques/culture
inhibition at 50 µg/mL ([2]; 50 μg/ml, 10^3 input): 83%
Plaques/culture ([2]; 500 μg/ml, 10^2 input): 5 ± 3 Plaques/culture
inhibition at 500 µg/mL ([2]; 500 μg/ml, 10^2 input): 95%
Plaques/culture ([2]; 500 μg/ml, 10^3 input): 43 ± 6 Plaques/culture
inhibition at 500 µg/mL ([2]; 500 μg/ml, 10^3 input): 94%

CCCCCCCCCCCCCCCCCCCCCCO [C-22 Alcohol, n-docosanol]
mean clinical score ([3]; 24 hours after the first treatment, vs untreated or control-treated, 5 mg once daily, half i.v., half s.c.): significant decrease in mean clinical score
P value, decrease in mean clinical score vs untreated ([3]; after further regimen of 3 treatments): 0.001
mean clinical score ([3]; after further regimen of 3 treatments (days 50-52)): another significant decrease in mean clinical score
P value, decrease in mean clinical score vs control-treated ([3]; after further regimen of 3 treatments, Pluronic F-68 control): 0.03
day of first complete clinical remission ([3]; after primary immunization (3 days after initial treatment)): 47 days
clinically normal mammals ([3]; by day 55 after primary immunization): 100%
lag of remission in untreated or control-treated groups behind n-docosanol-treated group ([3]; complete clinical remission): 8 to 9 days
mean clinical score ([3]; day 49, 48 hours after the last injection): a rise in mean clinical score
occurrence of remission from CIA ([3]; panel B of FIG. 3): hastened the occurrence of remission from CIA
Plaques/culture ([2]; 0.5 μg/ml, 10^2 input): 110 ± 2 Plaques/culture
inhibition at 0.5 µg/mL ([2]; 0.5 μg/ml, 10^2 input): 19%
Plaques/culture ([2]; 0.5 μg/ml, 10^3 input): 703 ± 88 Plaques/culture
inhibition at 0.5 µg/mL ([2]; 0.5 μg/ml, 10^3 input): 14%
Plaques/culture ([2]; 5 μg/ml, 10^2 input): 84 ± 12 Plaques/culture
inhibition at 5 µg/mL ([2]; 5 μg/ml, 10^2 input): 36%
Plaques/culture ([2]; 5 μg/ml, 10^3 input): 561 ± 50 Plaques/culture
inhibition at 5 µg/mL ([2]; 5 μg/ml, 10^3 input): 31%
Plaques/culture ([2]; 50 μg/ml, 10^2 input): 72 ± 24 Plaques/culture
inhibition at 50 µg/mL ([2]; 50 μg/ml, 10^2 input): 45%
Plaques/culture ([2]; 50 μg/ml, 10^3 input): 562 ± 11 Plaques/culture
inhibition at 50 µg/mL ([2]; 50 μg/ml, 10^3 input): 31%
Plaques/culture ([2]; 500 μg/ml, 10^2 input): 13 ± 2 Plaques/culture
inhibition at 500 µg/mL ([2]; 500 μg/ml, 10^2 input): 90%
Plaques/culture ([2]; 500 μg/ml, 10^3 input): 401 ± 5 Plaques/culture
inhibition at 500 µg/mL ([2]; 500 μg/ml, 10^3 input): 51%
inhibition at 0.06 µg/mL ([2]; C-22 alcohol 0.06 μg/ml, 100 PFU/ml (10^2 input)): 7%
inhibition at 0.6 µg/mL ([2]; C-22 alcohol 0.6 μg/ml, 100 PFU/ml (10^2 input)): 22%
inhibition at 6 µg/mL ([2]; C-22 alcohol 6 μg/ml, 100 PFU/ml (10^2 input)): 40%
inhibition at 60 µg/mL ([2]; C-22 alcohol 60 μg/ml, 100 PFU/ml (10^2 input)): 89%

CCCCCCCCCCCCCCCCCCCCCCCCCCCCCCCCO [C-32]
plant growth activity (growth of plants): do not possess such physiological activity, or at least have very much less physiological activity in plant growth

CCCCCCCCCCCCCCCCCCCCCCCCCCO [hexacosanol]
physical performance of athletes [1]: improved physical performance of athletes

CCCCCCCCCCCCCCCCCCCCCCCCCCCCO [octacosanol]
physical performance of athletes [1]: improved physical performance of athletes
plant growth activity (growth of plants): do not possess such physiological activity, or at least have very much less physiological activity in plant growth

CCCCCCCCCCCCCCCCCCCCCCCCO [tetracosanol]
physical performance of athletes [1]: improved physical performance of athletes
